This passage reports Ki, EC50 and Emax results from patent publication US6093838A, “Amines substituted with a dihydro-benzofuranyl or with a dihydro-isobenzofuranyl group, an aryl or heteroaryl group and an alkyl group, having retinoid-like biological activity” (Allergan Sales, Inc., priority 1999, dated 2000).

One test has as its target RXRγ. The test is described as follows: ligand binding assay, RXRγ. Particulars: read-out: RXR Bind Ki γ. The text has this:
(§1) Other assays described below, measure the ability of the compounds of the present invention to bind to, and/or activate various retinoid receptor subtypes. When in these assays a compound binds to a given receptor subtype and activates the transcription of a reporter gene through that subtype, then the compound is considered an agonist of that receptor subtype. […] In the below described assays the ability of the compounds to bind to RARα, RARβ, RARγ, RXRα, RXRβ and RXRγ receptors, and the ability or inability of the compounds to activate transcription of a reporter gene through these receptor subtypes can be tested. […] However, some of the compounds of the invention may behave as retinoid antagonists or partial antagonists and/or as inverse agonists. Because of the complex distribution of the different retinoid receptors in various organs of the mammalian body partial agonists and partial antagonists and compounds which have the characteristics of both may lend themselves to particularly useful therapeutic applications and may avoid serious side effects of conventional retinoid drugs.
(§2) A holoreceptor transactivation assay and a ligand binding assay which measure the antagonist/agonist like activity of the compounds of the invention, or their ability to bind to the several retinoid receptor subtypes, respectively, are described in published PCT Application No. WO WO93/11755 (particularly on pages 30-33 and 37-41) published on Jun. 24, 1993, the specification of which is also incorporated herein by reference. A detailed experimental procedure for holoreceptor transactivations has been described by Heyman et al. Cell 68, 397-406, (1992); Allegretto et al. J. Biol. Chem. 268, 26625-26633, and Mangelsdorf et al. The Retinoids: Biology, Chemistry and Medicine, pp 319-349, Raven Press Ltd., New York, which are expressly incorporated herein by reference. The results obtained in this assay are expressed in EC50 numbers, as they are also in the chimeric receptor transactivation assay. The results of ligand binding assay are expressed in Kd numbers. (See Cheng et al. Biochemical Pharmacology Vol. 22 pp 3099-3108, expressly incorporated herein by reference.)
(§3) Table 1 discloses the activity of certain exemplary compounds of the invention in the above-described chimeric receptor transactivation assay, holoreceptor transactivation assay and a ligand binding assays. Particularly, the transactivation data pertaining to RAR receptors were obtained in the chimeric assay, and the data pertaining to transactivation of RXR receptors were obtained in the holoreceptor transactivation assay.

For the next test, the target named is T1, RXRα (Homo sapiens, UniProt P19793).
T1 construct: expressed in transfected cells
T1 sequence (P19793 1-462): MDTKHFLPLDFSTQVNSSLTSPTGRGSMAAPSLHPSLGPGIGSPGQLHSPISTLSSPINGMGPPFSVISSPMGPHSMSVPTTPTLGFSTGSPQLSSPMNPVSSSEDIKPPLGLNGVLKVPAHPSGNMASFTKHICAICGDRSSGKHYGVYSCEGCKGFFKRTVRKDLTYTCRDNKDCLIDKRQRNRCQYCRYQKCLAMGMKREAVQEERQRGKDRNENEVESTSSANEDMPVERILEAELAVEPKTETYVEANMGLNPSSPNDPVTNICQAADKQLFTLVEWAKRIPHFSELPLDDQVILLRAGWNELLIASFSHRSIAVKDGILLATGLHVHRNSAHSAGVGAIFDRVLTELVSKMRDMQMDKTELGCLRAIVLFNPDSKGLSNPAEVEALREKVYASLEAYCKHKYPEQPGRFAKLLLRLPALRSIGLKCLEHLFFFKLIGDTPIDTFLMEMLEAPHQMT
The test is described as follows: ligand binding assay, RXRα. Conditions: read-out: RXR Bind Ki α.
Description: as §1, §2, §3

In test [1] the target is RXRβ. As to the kind of experiment: ligand binding assay, RXRβ. Particulars: read-out: RXR Bind Ki β.
Description: as §1, §2, §3

Test [2] addresses T2, RXRβ (Mus musculus, UniProt P28704).
T2 construct: expressed in transfected cells
T2 sequence (P28704 1-520): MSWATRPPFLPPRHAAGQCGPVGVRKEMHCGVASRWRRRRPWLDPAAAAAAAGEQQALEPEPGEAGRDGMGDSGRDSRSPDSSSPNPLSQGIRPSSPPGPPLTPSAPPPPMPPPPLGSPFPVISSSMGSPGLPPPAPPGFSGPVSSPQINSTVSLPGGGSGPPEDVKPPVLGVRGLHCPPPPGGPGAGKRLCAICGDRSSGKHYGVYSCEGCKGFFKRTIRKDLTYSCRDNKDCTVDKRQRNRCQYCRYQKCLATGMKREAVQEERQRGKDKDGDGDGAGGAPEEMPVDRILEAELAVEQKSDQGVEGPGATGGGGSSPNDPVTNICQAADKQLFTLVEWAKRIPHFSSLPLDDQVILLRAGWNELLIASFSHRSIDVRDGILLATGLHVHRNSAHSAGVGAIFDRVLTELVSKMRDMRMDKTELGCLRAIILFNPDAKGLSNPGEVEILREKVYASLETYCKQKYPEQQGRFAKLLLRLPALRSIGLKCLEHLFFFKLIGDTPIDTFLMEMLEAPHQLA
As to the kind of experiment: holoreceptor transactivation assay, RXRβ. Format: cell-based. Particulars: for EC50: holoreceptor transactivation, RXRβ, read-out: RXR Trans. EC50 β; for Emax: relative to 10^-6 M cyclopropyl penta-2,4-dienoic acid reference (RXRs), read-out: % efficacy (RXRβ transactivation).
Description: as §1, §2, §3

The next test concerns the target T3, RARβ (Homo sapiens, UniProt P10826).
T3 sequence (P10826 1-448 isoform P10826-2): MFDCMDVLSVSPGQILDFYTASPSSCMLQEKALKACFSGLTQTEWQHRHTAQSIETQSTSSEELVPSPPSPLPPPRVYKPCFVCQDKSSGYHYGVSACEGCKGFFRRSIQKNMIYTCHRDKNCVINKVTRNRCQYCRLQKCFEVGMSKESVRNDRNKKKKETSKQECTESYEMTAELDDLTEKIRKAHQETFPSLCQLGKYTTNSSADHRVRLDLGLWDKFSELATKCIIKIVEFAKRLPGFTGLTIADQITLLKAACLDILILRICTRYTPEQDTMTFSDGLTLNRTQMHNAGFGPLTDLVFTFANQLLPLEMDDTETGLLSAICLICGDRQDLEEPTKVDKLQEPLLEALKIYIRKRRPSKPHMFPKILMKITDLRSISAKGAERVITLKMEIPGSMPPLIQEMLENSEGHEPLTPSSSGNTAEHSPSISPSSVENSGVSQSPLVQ
As to the kind of experiment: ligand binding assay, RARβ. Particulars: read-out: RAR Bind. Ki β.
Description: as §1, §2, §3

SMILES strings stand for the structures. Where only a bound is given, the exact number is not on record here.

With `CCN(c1ccc(C(=O)O)cc1)c1cc(C)c2c(c1)C(C)(C)CO2` [Compound 27, 4-[Ethyl-(3,3,7-trimethyl-2,3-dihydro-benzofuran-5-yl)-amino]-benzoic acid], the Ki is greater than 100000 nM at RXRγ, 15000 nM at RXRα, greater than 100000 nM on RXRβ [1] and greater than 30000 nM on RARβ. In addition, the EC50 on RXRβ [2] was greater than 1000 nM.
In the case of `CCc1cc(N(CC)c2ccc(C(=O)O)cc2)cc2c1OCC2(C)C` [Compound 29, 4-[Ethyl-(3,3-dimethyl-7-ethyl-2,3-dihydro-benzofuran-5-yl)-amino]-benzoic acid], the Ki at RXRγ was greater than 1000 nM; on RXRα it was greater than 1000 nM; on RXRβ [1] it was greater than 1000 nM; at RARβ, greater than 10000 nM. Also, at RXRβ [2], the EC50 was 800 nM. Further, the Emax on RXRβ [2] worked out at 70%.
As for `CC(C)c1cc(N(C)c2ccc(C(=O)O)cc2)cc2c1OCC2(C)C` [Compound 30, 4-[Methyl-(3,3-dimethyl-7-isopropyl-2,3-dihydro-benzofuran-5-yl)-amino]-benzoic acid], the Ki at RXRγ was greater than 10000 nM; at RXRα, 11000 nM; at RXRβ [1], 4600 nM; on RARβ it was greater than 30000 nM. Also, the concentration for a half-maximal effect (EC50) on RXRβ [2] is greater than 1000 nM. The Emax at RXRβ [2] turned out to be 10%.
For `CCN(c1ccc(C(=O)O)cc1)c1cc(C(C)C)c2c(c1)C(C)(C)CO2` [Compound 31, 4-[Ethyl-(3,3-dimethyl-7-isopropyl-2,3-dihydro-benzofuran-5-yl)-amino]-benzoic acid], the Ki worked out at 4100 nM on RXRγ, 1.8 nM on RXRα, 752 nM on RXRβ [1] and 29000 nM at RARβ. Moreover, at RXRβ [2], the EC50 came out at 1000 nM. Also, the Emax at RXRβ [2] came to 75%.
On to `CCN(c1ccc(C(=O)O)cc1)c1cc(C(C)(C)C)c2c(c1)C(C)(C)CO2` [Compound 32, 4-[Ethyl-(7-t-butyl-3,3-dimethyl-2,3-dihydro-benzofuran-5-yl)-amino]-benzoic acid], for which the Ki is 672 nM at RXRγ, 222 nM at RXRα, 342 nM on RXRβ [1] and greater than 1000 nM on RARβ. For the same molecule, the EC50 at RXRβ [2] was 1000 nM. Moreover, the Emax on RXRβ [2] worked out at 50%.
With `CCc1cc(N(c2ccc(C(=O)O)cc2)C(C)C)cc2c1OCC2(C)C` [Compound 42, 4-[Isopropyl-(3,3-dimethyl-7-ethyl-2,3-dihydro-benzofuran-5-yl)-amino]-benzoic acid], the Ki is greater than 1000 nM on RXRγ, greater than 1000 nM on RXRα, greater than 1000 nM on RXRβ [1] and greater than 10000 nM on RARβ. The EC50 at RXRβ [2] was greater than 1000 nM. For the same molecule, at RXRβ [2], the Emax was determined as 30%.
In the case of `CC(C)c1cc(N(c2ccc(C(=O)O)cc2)C(C)C)cc2c1OCC2(C)C` [Compound 43], on RXRα, the Ki is greater than 1000 nM. Besides, on RXRβ [2], the EC50 amounted to 58 nM and the Emax is 58%. The Ki at RARβ was greater than 10000 nM.
On to `CC(C)N(c1ccc(C(=O)O)cc1)c1cc(C(C)(C)C)c2c(c1)C(C)(C)CO2` [Compound 44, 4-[Isopropyl-(7-t-butyl-3,3-dimethyl-2,3-dihydro-benzofuran-5-yl)-amino]-benzoic acid], for which the Ki on RXRγ was 344 nM; at RXRα, 11 nM; at RXRβ [1] it was 215 nM; on RARβ, greater than 1000 nM. Moreover, the EC50 at RXRβ [2] was 171 nM. The Emax on RXRβ [2] was found to be 33%.
Consider `Cc1c(N(c2ccc(C(=O)O)cc2)C(C)C)cc2c(c1C(C)(C)C)OCC2(C)C` [Compound 73, 4-[Isopropyl-(7-t-butyl-3,3,6-trimethyl-2,3-dihydro-benzofuran-5-yl)-amino]-benzoic acid], for which the Ki was 236 nM on RXRγ, 71 nM on RXRα, 178 nM at RXRβ [1] and greater than 10000 nM at RARβ. Besides, on RXRβ [2], the EC50 was found to be 71 nM. The Emax on RXRβ [2] is 92%.
For `CCN(c1ccc(C(=O)O)cc1)c1ccc2c(c1)C(C)(C)OC2(C)C` [Compound 83, 4-[Ethyl-(1,1,3,3-tetramethyl-1,3-dihydro-isobenzofuran-5-yl)-amino]-benzoic acid], the Ki is greater than 1000 nM at RXRγ, 1000 nM at RXRα, greater than 1000 nM on RXRβ [1] and greater than 10000 nM at RARβ. The EC50 on RXRβ [2] was 1000 nM. Besides, at RXRβ [2], the Emax turned out to be 100%.
`CCCN(c1ccc(C(=O)O)cc1)c1ccc2c(c1)C(C)(C)OC2(C)C` [Compound 84, 4-[n-Propyl-(1,1,3,3-tetramethyl-1,3-dihydro-isobenzofuran-5-yl)-amino]-benzoic acid]: the Ki at RXRγ was greater than 1000 nM; on RXRα, 1500 nM; on RXRβ [1], 2000 nM; at RARβ, greater than 10000 nM. The concentration giving a half-maximal response (EC50) on RXRβ [2] stood at 1000 nM. For the same molecule, the Emax on RXRβ [2] is 184%.
`CCCCN(c1ccc(C(=O)O)cc1)c1ccc2c(c1)C(C)(C)OC2(C)C` [Compound 85, 4-[n-Butyl-(1,1,3,3-tetramethyl-1,3-dihydro-isobenzofuran-5-yl)-amino]-benzoic acid]: the Ki at RXRγ was greater than 1000 nM; at RXRα, greater than 1000 nM; on RXRβ [1], greater than 1000 nM; on RARβ, greater than 10000 nM. The EC50 at RXRβ [2] is 1000 nM. Further, the Emax at RXRβ [2] stood at 60%.
As for `CC(C)N(c1ccc(C(=O)O)cc1)c1ccc2c(c1)C(C)(C)OC2(C)C` [Compound 87, 4-[i-Propyl-(1,1,3,3-tetramethyl-1,3-dihydro-isobenzofuran-5-yl)-amino]-benzoic acid], the Ki is 2100 nM at RXRγ, 650 nM at RXRα, 2700 nM at RXRβ [1] and greater than 10000 nM at RARβ. Moreover, at RXRβ [2], the EC50 amounted to 1000 nM. Moreover, the Emax at RXRβ [2] is 65%.

In general, Ki refers to a dissociation constant, usually derived from enzyme kinetics or from competition with a known ligand. The EC50 is the concentration that produces a half-maximal response.
